Consider five compounds from PMC11638965, “Leveraging Dual-Ligase Recruitment to Enhance Protein Degradation via a Heterotrivalent Proteolysis Targeting Chimera” (Journal of the American Chemical Society, 2024).

The target of experiment [1] is T1, BRD2 (Homo sapiens, UniProt P25440).
T1 construct: HiBiT, is appended to the N-terminus of endogenous BRD2, BRD3, and BRD4; endogenous in cells
The experiment can be described thus: Western blot dose-response degradation in HEK293 cells. In kind it is cell-based. The note with it: 6 h, mean ± S.E.M. of three experiments, values marked b mean ± S.D. of two. Here is the method: (§1) HEK293 cells were obtained from ATCC. HEK293 was cultured in DMEM supplemented with 10% (v/v) fetal bovine serum (FBS), 1% […] and 1% (v/v) penicillin/streptomycin (pen/strep) at 37 °C, 5% CO2, and 95% humidity.
(§2) HEK293 cells were plated at a density of 5 × 10^5 cells per well of a six well plate a day prior to initiation of the experiment. Compounds were dissolved to a 10 mM concentrated stock solution in DMSO from which the compounds were further diluted to a working concentration range of 1 μM to 100 pM in DMEM and was subsequently added to cells at the initiation of the experiment. An additional vehicle control was added to cells alongside compound treatments. Cells were left to incubate with compound for 6 h at 37 °C, 5% CO2, and 95% humidity. Cells were then subsequently washed twice with PBS before being harvested in RIPA buffer supplemented with protease inhibitor cocktail and Benzonase Nuclease before being store at −20 °C.
(§3) Protein concentration was determined using the BCA assay. Samples were then prepared in LDS buffer containing 5% 1 M DTT and subsequently loaded onto NuPAGE 4–12% Bis-Tris Midi gels, followed by the transfer of the proteins onto nitrocellulose membranes. The membranes were blocked for 1 h prior to incubation with the primary antibodies using 5% Milk TBST. Membranes were incubated at 4 °C in either BRD4(Ab128874), BRD3(Ab50818), BRD2(Ab139690), VHL(CST#68547) and CRBN(CST#71810) primary antibody overnight. Following overnight incubation, the membranes were incubated with complementary IRDye 800CW secondary antibody and a hFAB Rhodamine Anti-Tubulin Primary Antibody (loading control) for 1 h and then imaged with a Bio-Rad imager. All Western blots were analyzed for band intensities using Image Lab (Bio-Rad). The data extracted from these blots were then plotted and analyzed using Prism (v. 10.2.2, GraphPad). Linear regression curve fitting was used to calculate pDC50 values. The standard deviation of the pDC50 was calculated for all compounds that had two independent repeats and the standard error of the mean calculated for all compounds that had three independent repeats. All Western blotting figures were developed in Adobe illustrator.

The target of experiment [2] is T2, BRD3 (Homo sapiens, UniProt Q15059).
T2 construct: HiBiT, is appended to the N-terminus of endogenous BRD2, BRD3, and BRD4; endogenous in cells
T2 sequence (Q15059 whole entry): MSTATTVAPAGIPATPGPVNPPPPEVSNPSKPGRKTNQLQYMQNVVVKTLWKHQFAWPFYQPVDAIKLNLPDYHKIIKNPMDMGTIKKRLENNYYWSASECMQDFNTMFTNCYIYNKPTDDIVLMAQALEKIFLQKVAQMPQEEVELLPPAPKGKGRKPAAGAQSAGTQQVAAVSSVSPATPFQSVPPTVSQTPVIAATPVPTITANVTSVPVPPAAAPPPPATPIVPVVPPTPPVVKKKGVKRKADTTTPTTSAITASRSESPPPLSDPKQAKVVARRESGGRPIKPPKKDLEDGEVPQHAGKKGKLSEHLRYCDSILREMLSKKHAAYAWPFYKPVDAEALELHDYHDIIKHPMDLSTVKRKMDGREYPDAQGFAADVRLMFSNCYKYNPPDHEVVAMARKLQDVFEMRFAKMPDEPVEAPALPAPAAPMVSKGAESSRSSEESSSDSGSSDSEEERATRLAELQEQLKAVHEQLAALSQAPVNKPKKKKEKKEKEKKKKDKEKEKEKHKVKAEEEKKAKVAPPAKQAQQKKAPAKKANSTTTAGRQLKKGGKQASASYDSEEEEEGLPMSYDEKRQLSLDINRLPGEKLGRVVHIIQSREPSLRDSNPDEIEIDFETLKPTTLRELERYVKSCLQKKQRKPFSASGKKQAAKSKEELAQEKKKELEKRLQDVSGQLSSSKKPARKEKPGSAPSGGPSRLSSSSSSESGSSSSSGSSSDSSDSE
The description is as above. Type of experiment: cell-based. The note with it: 6 h, mean ± S.E.M. of three experiments, values marked b mean ± S.D. of two. Here is the method: as §1, §2, §3

The target of experiment [3] is T3, BRD4^Long (Homo sapiens, UniProt O60885).
T3 construct: Western blot data for BET, CRBN and VHL protein levels; endogenous in cells; host or cells: HEK293 (ATCC)
The experiment is described as above. Type of experiment: cell-based. The note with it: for DC50: HEK293 cells, 6 h, Western blot, mean ± S.E.M. of three experiments, values marked b mean ± S.D. of two. As for the experimental part: as §1, §2, §3

In experiment [4] the target is T4, BRD4^Short (Homo sapiens, UniProt O60885).
T4 construct: Western blot data for BET, CRBN and VHL protein levels; endogenous in cells; host or cells: HEK293 (ATCC)
The experiment is described as above. The note with it: 6 h, mean ± S.E.M. of three experiments, values marked b mean ± S.D. of two. In kind it is cell-based. Here is the method:
as §1, §2, §3

The test system of experiment [5] is RKO CRBN/VHL dKO cells. The experiment can be described thus: Cell viability assay (CellTiter-Glo). In kind it is cell-based, human. Conditions: Homo sapiens, 72 h, 316 pM to 10 μM, 3 days, n = 3 (Figures 5 and 8C, Table S5); read-out: EC50 RKO CRBN/VHL dKO.
Experiment [6] deals with K562 cells. The experiment can be described thus: Cell viability assay (CellTiter-Glo). In kind it is cell-based, human. The note with it: Homo sapiens; WT K562, 5.12 pM to 10 uM, n = 3 (Table S4).
Experiment [7] has as its system KBM7 cells. The experiment can be described thus: Cell viability assay (CellTiter-Glo). Type of experiment: cell-based, human. The note with it: Homo sapiens, KBM-7; WT KBM7, 5.12 pM to 10 uM, n = 3 (Table S4).
Experiment [8] concerns the target CRBN (Homo sapiens, UniProt Q96SW2). The experiment can be described thus: Western blot dose-response degradation in HEK293 cells. In kind it is cell-based. Details: Western blot data for BET, CRBN and VHL protein levels; endogenous in cells; host or cells: HEK293 (ATCC). The note with it: for DC50: HEK293 cells, 6 h, Western blot, mean ± S.E.M. of three experiments, values marked b mean ± S.D. of two. Here is the method:
as §1, §2, §3

The structures appear in SMILES notation.

CRBN, sequence (Q96SW2 whole entry): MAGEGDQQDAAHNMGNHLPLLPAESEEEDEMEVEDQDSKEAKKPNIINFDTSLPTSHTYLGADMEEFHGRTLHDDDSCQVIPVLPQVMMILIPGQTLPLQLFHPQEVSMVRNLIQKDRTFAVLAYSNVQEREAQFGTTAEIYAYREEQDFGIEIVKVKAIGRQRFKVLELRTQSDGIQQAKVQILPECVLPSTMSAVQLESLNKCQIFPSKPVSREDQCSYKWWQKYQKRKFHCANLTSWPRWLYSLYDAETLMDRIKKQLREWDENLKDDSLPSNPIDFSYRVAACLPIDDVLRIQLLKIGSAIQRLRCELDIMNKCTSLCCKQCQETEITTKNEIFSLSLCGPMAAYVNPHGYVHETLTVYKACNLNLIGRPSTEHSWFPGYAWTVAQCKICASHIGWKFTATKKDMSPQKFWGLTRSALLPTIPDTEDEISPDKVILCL
T1 sequence (P25440 whole entry): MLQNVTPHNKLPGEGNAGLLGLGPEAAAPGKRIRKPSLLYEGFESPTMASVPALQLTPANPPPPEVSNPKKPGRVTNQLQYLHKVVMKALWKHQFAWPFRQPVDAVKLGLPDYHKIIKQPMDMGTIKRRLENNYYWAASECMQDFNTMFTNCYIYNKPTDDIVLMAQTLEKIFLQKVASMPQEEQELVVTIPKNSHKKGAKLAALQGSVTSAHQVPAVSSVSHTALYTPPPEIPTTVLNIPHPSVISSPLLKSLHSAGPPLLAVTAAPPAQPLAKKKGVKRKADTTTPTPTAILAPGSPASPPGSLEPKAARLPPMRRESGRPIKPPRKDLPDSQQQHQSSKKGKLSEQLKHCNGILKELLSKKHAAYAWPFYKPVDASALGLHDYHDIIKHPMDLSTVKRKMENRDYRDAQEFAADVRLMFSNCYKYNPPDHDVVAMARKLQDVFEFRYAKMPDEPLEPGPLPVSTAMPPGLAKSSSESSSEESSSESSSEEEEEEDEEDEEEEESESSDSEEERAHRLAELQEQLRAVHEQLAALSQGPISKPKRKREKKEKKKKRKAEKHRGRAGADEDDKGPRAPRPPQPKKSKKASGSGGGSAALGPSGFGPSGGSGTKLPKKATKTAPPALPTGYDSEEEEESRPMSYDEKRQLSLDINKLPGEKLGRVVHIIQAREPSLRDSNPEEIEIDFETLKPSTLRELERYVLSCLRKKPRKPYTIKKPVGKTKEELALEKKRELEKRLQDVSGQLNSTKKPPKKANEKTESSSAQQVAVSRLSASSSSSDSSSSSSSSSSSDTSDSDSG

On to `Cc1ncsc1-c1ccc(CNC(=O)[C@@H]2C[C@@H](O)CN2C(=O)[C@@H](NC(=O)COCC(C)(COCCOCCOCCNc2cc3c(cc2F)C(=O)N(C2CCC(=O)NC2=O)C3=O)COCCOCCOCCOC(=O)C[C@@H]2N=C(c3ccc(Cl)cc3)c3c(sc(C)c3C)-n3c(C)nnc32)C(C)(C)C)cc1` (mixture of isomers) [AB3063 (26), (17S)-11-((2-(2-(2-((2-(2,6-dioxopiperidin-3-yl)-6-fluoro-1,3-dioxoisoindolin-5-yl)amino)ethoxy)ethoxy)ethoxy)methyl)-17-((2S,4R)-4-hydroxy-2-((4-(4-methylthiazol-5-yl)benzyl)carbamoyl)pyrrolidine-1-carbonyl)-11,18,18-trimethyl-15-oxo-3,6,9,13-tetraoxa-16-azanonadecyl 2-((S)-4-(4-chlorophenyl)-2,3,9-trimethyl-6H-thieno[3,2-f][1,2,4]triazolo[4,3-a][1,4]diazepin-6-yl)acetate], for which the DC50 in experiment [1] came to 14 ± 4.6 nM; in experiment [2], 4.8 ± 2.4 nM; in experiment [3], 0.76 ± 0.1 nM; in experiment [4], 3.2 ± 0.9 nM; in experiment [8], 200 ± 31 nM. In addition, the figures for the EC50 in experiment [5], in experiment [6] and in experiment [7] were 2240 nM, 74.1 nM and 21.2 nM, respectively.
`Cc1ncsc1-c1ccc(CNC(=O)[C@@H]2C[C@@H](O)CN2C(=O)[C@@H](NC(=O)COCC(C)(COCCOCCOCCNc2cc3c(cc2F)C(=O)N(C2CCC(=O)NC2=O)C3=O)COCCOCCOC(=O)C[C@@H]2N=C(c3ccc(Cl)cc3)c3c(sc(C)c3C)-n3c(C)nnc32)C(C)(C)C)cc1` (mixture of isomers) [AB3065 (28), (14S)-8-((2-(2-(2-((2-(2,6-dioxopiperidin-3-yl)-6-fluoro-1,3-dioxoisoindolin-5-yl)amino)ethoxy)ethoxy)ethoxy)methyl)-14-((2S,4R)-4-hydroxy-2-((4-(4-methylthiazol-5-yl)benzyl)carbamoyl)pyrrolidine-1-carbonyl)-8,15,15-trimethyl-12-oxo-3,6,10-trioxa-13-azahexadecyl 2-((S)-4-(4-chlorophenyl)-2,3,9-trimethyl-6H-thieno[3,2-f][1,2,4]triazolo[4,3-a][1,4]diazepin-6-yl)acetate]: the DC50 is 21 ± 5.4 nM in experiment [1]; 14 ± 7.5 nM in experiment [2]; 10 ± 4.4 nM in experiment [3]; 12 ± 5.8 nM in experiment [4]; 310 ± 200 nM in experiment [8]. Moreover, the values for the EC50 in experiment [6] and in experiment [7] were 110 nM and 39.4 nM, respectively.
For the compound `Cc1ncsc1-c1ccc([C@H](C)NC(=O)[C@@H]2C[C@@H](O)CN2C(=O)[C@@H](NC(=O)COCC(C)(COCCOCCOCCNc2cccc3c2C(=O)N(C2CCC(=O)NC2=O)C3=O)COCCOCCOCCOC(=O)C[C@@H]2N=C(c3ccc(Cl)cc3)c3c(sc(C)c3C)-n3c(C)nnc32)C(C)(C)C)cc1` (mixture of isomers) [AB3066 (24), (17S)-11-((2-(2-(2-((2-(2,6-dioxopiperidin-3-yl)-1,3-dioxoisoindolin-4-yl)amino)ethoxy)ethoxy)ethoxy)methyl)-17-((2S,4R)-4-hydroxy-2-(((S)-1-(4-(4-methylthiazol-5-yl)phenyl)ethyl)carbamoyl)pyrrolidine-1-carbonyl)-11,18,18-trimethyl-15-oxo-3,6,9,13-tetraoxa-16-azanonadecyl 2-((S)-4-(4-chlorophenyl)-2,3,9-trimethyl-6H-thieno[3,2-f][1,2,4]triazolo[4,3-a][1,4]diazepin-6-yl)acetate], the DC50 in experiment [1] is 43 ± 1.1 nM; in experiment [2] it was 8.9 ± 1.5 nM; in experiment [3] it was 6.8 ± 1.3 nM; in experiment [4], 5.9 ± 2.3 nM; in experiment [8], 81 ± 11 nM. Also, the EC50 was 134 nM in experiment [6] and 38 nM in experiment [7]. In experiment [8] (27 vs 26, 24 vs 23, DC50, HEK293 Western blot), the “fold increase in CRBN degradation vs nonmethylated matched pair” value is recorded as around 2.6 fold.
As to `Cc1ncsc1-c1ccc(CNC(=O)[C@@H]2C[C@@H](O)CN2C(=O)[C@@H](NC(=O)COCC(C)(COCCOCCNc2cc3c(cc2F)C(=O)N(C2CCC(=O)NC2=O)C3=O)COCCOCCOC(=O)C[C@@H]2N=C(c3ccc(Cl)cc3)c3c(sc(C)c3C)-n3c(C)nnc32)C(C)(C)C)cc1` (mixture of isomers) [AB3125 (30), (14S)-8-((2-(2-((2-(2,6-dioxopiperidin-3-yl)-6-fluoro-1,3-dioxoisoindolin-5-yl)amino)ethoxy)ethoxy)methyl)-14-((2S,4R)-4-hydroxy-2-((4-(4-methylthiazol-5-yl)benzyl)carbamoyl)pyrrolidine-1-carbonyl)-8,15,15-trimethyl-12-oxo-3,6,10-trioxa-13-azahexadecyl 2-((S)-4-(4-chlorophenyl)-2,3,9-trimethyl-6H-thieno[3,2-f][1,2,4]triazolo[4,3-a][1,4]diazepin-6-yl)acetate], the DC50 in experiment [1] amounted to 19 ± 7.2 nM; in experiment [2], 6.4 ± 0.8 nM; in experiment [3], 4 ± 2.1 nM; in experiment [4], 4.4 ± 2.4 nM; in experiment [8] it was 900 ± 720 nM. Further, the “fold decrease in BRD4^Long degradation vs 26” value in experiment [3] (DC50, HEK293 Western blot) is 5.3 fold. Also, the EC50 amounted to 242 nM in experiment [6] and 34.1 nM in experiment [7]. In experiment [8] (DC50, HEK293 Western blot), the “fold decrease in CRBN degradation vs 26” value was found to be 4.5 fold.
Take `Cc1ncsc1-c1ccc(CNC(=O)[C@@H]2C[C@@H](O)CN2C(=O)[C@@H](NC(=O)COCC(C)(COCCOCCNc2cc3c(cc2F)C(=O)N(C2CCC(=O)NC2=O)C3=O)COCCOCCOCCOC(=O)C[C@@H]2N=C(c3ccc(Cl)cc3)c3c(sc(C)c3C)-n3c(C)nnc32)C(C)(C)C)cc1` (mixture of isomers) [AB3126 (29), (17S)-11-((2-(2-((2-(2,6-dioxopiperidin-3-yl)-6-fluoro-1,3-dioxoisoindolin-5-yl)amino)ethoxy)ethoxy)methyl)-17-((2S,4R)-4-hydroxy-2-((4-(4-methylthiazol-5-yl)benzyl)carbamoyl)pyrrolidine-1-carbonyl)-11,18,18-trimethyl-15-oxo-3,6,9,13-tetraoxa-16-azanonadecyl 2-((S)-4-(4-chlorophenyl)-2,3,9-trimethyl-6H-thieno[3,2-f][1,2,4]triazolo[4,3-a][1,4]diazepin-6-yl)acetate]: the DC50 in experiment [1] was 33 ± 34 nM; in experiment [2] it was 6.6 ± 0.3 nM; in experiment [3], 5 ± 5.3 nM; in experiment [4], 5.3 ± 5.5 nM; in experiment [8], 150 ± 190 nM. Further, the EC50 amounted to 80.5 nM in experiment [6] and 7.3 nM in experiment [7].
